The text below walks through data of PubChem BioAssay AID330 (DTP/NCI, 2004).

This test relates to P388 leukemia ip, CD2F1 mice, survival T/C. The test can be described thus: NCI In Vivo Anticancer Drug Screen. Data for tumor model P388 Leukemia (intraperitoneal) in CD2F1 (CDF1) mice. To be noted: endpoint: median survival time, higher = longer survival. The method, boiled down:
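Mice carrying the transplanted tumor received test compound or vehicle. Survival was recorded in each group, and the value is the treated-group measurement divided by that of the vehicle-treated control group.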

Where [1] appears, read: dose: 200.0 mg/kg/injection, schedule: Q01DX009 (ip), vehicle: saline with Tween-80.
Where [2] appears, read: dose: 100.0 mg/kg/injection, schedule: Q01DX009 (ip), vehicle: saline with Tween-80.
The mark [3] stands for this setting: dose: 25.0 mg/kg/injection, schedule: Q04DX002 (ip), vehicle: saline with Tween-80.
[4] abbreviates: dose: 60.0 mg/kg/injection, schedule: Q01DX005 (ip), vehicle: saline with Tween-80.
Setting [5] is: dose: 120.0 mg/kg/injection, schedule: Q01DX005 (ip), vehicle: saline with Tween-80.
Setting [6] is: dose: 240.0 mg/kg/injection, schedule: Q01DX005 (ip), vehicle: saline with Tween-80.
[7] abbreviates: dose: 50.0 mg/kg/injection, schedule: Q01DX009 (ip), vehicle: saline with Tween-80.

Molecules are shown by their SMILES. “And” between values parts separate entries of the source, which are not always exact repeats. Equal values may be shown once. Inconclusive results and toxic doses are left out.

With `O=NN(C(=O)NCCCl)c1[nH]c(=O)ncc1Cl`, the T/C is 97 % of control (dose: 25.0 mg/kg/injection, schedule: Q01DX005 (ip), vehicle: Klucel (hydroxypropylcellulose) (HPC)); 100 % of control (dose: 50.0 mg/kg/injection, schedule: Q01DX005 (ip), vehicle: Klucel (hydroxypropylcellulose) (HPC)); 108 % of control (dose: 100.0 mg/kg/injection, schedule: Q01DX005 (ip), vehicle: Klucel (hydroxypropylcellulose) (HPC)).
Regarding `O=C(Nc1cccc2c(OC(=O)C(Cl)Cl)c(N=Nc3ccc(S(=O)(=O)Nc4nccs4)cc3)cc(N=Nc3ccc(S(=O)(=O)Nc4nccs4)cc3)c12)C(Cl)Cl` (tested in a mixture with another compound), the T/C (dose: 3.12 mg/kg/injection, schedule: Q01DX009 (ip), vehicle: saline with Tween-80) was 107 % of control; the T/C (dose: 6.25 mg/kg/injection, schedule: Q01DX009 (ip), vehicle: saline with Tween-80) is 104 % of control; the T/C (dose: 12.5 mg/kg/injection, schedule: Q01DX009 (ip), vehicle: saline with Tween-80) is 105 % of control and 110 % of control; the T/C (dose: 25.0 mg/kg/injection, schedule: Q01DX009 (ip), vehicle: saline with Tween-80) is 105 % of control [middle of 5 runs]; the T/C under setting [1] was 108 % of control [middle of 8 runs].
`NC(=O)c1ccc(=S)[nH]c1`: the T/C runs as follows: (dose: 12.5 mg/kg/injection, schedule: Q01DX009 (ip), vehicle: Klucel (hydroxypropylcellulose) (HPC)) 106 % of control; (dose: 25.0 mg/kg/injection, schedule: Q01DX009 (ip), vehicle: Klucel (hydroxypropylcellulose) (HPC)) 103 % of control; (dose: 50.0 mg/kg/injection, schedule: Q01DX009 (ip), vehicle: Klucel (hydroxypropylcellulose) (HPC)) 97 % of control; (dose: 100.0 mg/kg/injection, schedule: Q01DX009 (ip), vehicle: Klucel (hydroxypropylcellulose) (HPC)) 103 % of control.
Turning to `COC(=O)C(C)NP(=O)(N1CC1)N1CC1` (stereo not drawn), the T/C runs as follows: (dose: 1.87 mg/kg/injection, schedule: Q01DX005 (ip), vehicle: saline) 119 % of control; (dose: 7.5 mg/kg/injection, schedule: Q01DX005 (ip), vehicle: saline) 176 % of control; (dose: 15.0 mg/kg/injection, schedule: Q01DX005 (ip), vehicle: saline with Tween-80) 257 % of control; (dose: 15.0 mg/kg/injection, schedule: Q01DX005 (ip), vehicle: saline) 226 % of control.
As for `CC1(C)N=NC2(Br)C3CCC(C3)C12` (stereo not drawn), the T/C is, setting by setting: (dose: 100.0 mg/kg/injection, schedule: Q04DX002 (ip), vehicle: Klucel (hydroxypropylcellulose) (HPC)) 102 % of control; (dose: 200.0 mg/kg/injection, schedule: Q04DX002 (ip), vehicle: Klucel (hydroxypropylcellulose) (HPC)) 97 % of control; (dose: 400.0 mg/kg/injection, schedule: Q04DX002 (ip), vehicle: Klucel (hydroxypropylcellulose) (HPC)) 100 % of control.
`NC(=O)C(Cl)(Cl)Cl`: the T/C was 100 % of control under setting [2]; 99 % of control under setting [1]; 99 % of control (dose: 400.0 mg/kg/injection, schedule: Q01DX009 (ip), vehicle: saline with Tween-80).
Consider `CN(C)c1ncnc2c1ncn2CC(O)CN` (stereo not drawn), for which the T/C is 100 % of control (dose: 50.0 mg/kg/injection, schedule: Q01DX005 (ip), vehicle: distilled water + alcohol); 103 % of control (dose: 100.0 mg/kg/injection, schedule: Q01DX005 (ip), vehicle: distilled water + alcohol); 96 % of control (dose: 200.0 mg/kg/injection, schedule: Q01DX005 (ip), vehicle: distilled water + alcohol).
On to `CCCOC(=O)/C=C(\F)C(=O)OCCC`, for which the T/C (dose: 6.25 mg/kg/injection, schedule: Q04DX002 (ip), vehicle: saline with Tween-80) was 110 % of control; the T/C (dose: 12.5 mg/kg/injection, schedule: Q04DX002 (ip), vehicle: saline with Tween-80) was 116 % of control; the T/C under setting [3] was 95 % of control.
`NC(=O)c1sc(SCc2ccccc2)c(-[n+]2ccccc2)c1N`: the T/C is 105 % of control under setting [3] and 105 % of control (dose: 50.0 mg/kg/injection, schedule: Q04DX002 (ip), vehicle: saline with Tween-80).
For `COc1cccc2cc(-n3nnc4ccccc43)c(=O)oc12`, the T/C runs as follows: (dose: 30.0 mg/kg/injection, schedule: Q01DX005 (ip), vehicle: saline with Tween-80) 94 % of control; under setting [4], 86 % of control and 91 % of control and 94 % of control; under setting [5], 94 % of control; under setting [6], 86 % of control and 87 % of control.
On to `COc1ccc(C(=O)Oc2ccc[nH]c2=O)cc1`, for which the T/C (dose: 50.0 mg/kg/injection, schedule: Q01DX009 (ip), vehicle: saline) is 102 % of control and 107 % of control; the T/C (dose: 100.0 mg/kg/injection, schedule: Q01DX009 (ip), vehicle: saline) was 99 % of control and 102 % of control; the T/C (dose: 200.0 mg/kg/injection, schedule: Q01DX009 (ip), vehicle: saline) is 98 % of control and 102 % of control; the T/C (dose: 400.0 mg/kg/injection, schedule: Q01DX009 (ip), vehicle: saline) was 104 % of control and 93 % of control.
On to `COc1ccc(C(C)c2cc3c(cc2OC(C)O)OCO3)cc1` (stereo not drawn), for which the T/C by setting is: under setting [4], 92 % of control; under setting [5], 94 % of control; under setting [6], 97 % of control.
`CCCCCC(C=O)C(O)(C(F)(F)F)C(F)(F)Cl` (stereo not drawn): the T/C was 100 % of control (dose: 50.0 mg/kg/injection, schedule: Q04DX003 (ip), vehicle: saline with Tween-80); 100 % of control (dose: 100.0 mg/kg/injection, schedule: Q04DX003 (ip), vehicle: saline with Tween-80); 109 % of control (dose: 200.0 mg/kg/injection, schedule: Q04DX003 (ip), vehicle: saline with Tween-80).
As for `CC1(C)CC(C)(OC(=O)c2ccc(F)cc2)[N+]([O-])=N1` (stereo not drawn), the T/C is 115 % of control (dose: 4.7 mg/kg/injection, schedule: Q01DX009 (ip), vehicle: other); 112 % of control (dose: 9.4 mg/kg/injection, schedule: Q01DX009 (ip), vehicle: other); 106 % of control (dose: 18.8 mg/kg/injection, schedule: Q01DX009 (ip), vehicle: other); 120 % of control (dose: 37.5 mg/kg/injection, schedule: Q01DX009 (ip), vehicle: other); 106 % of control (dose: 75.0 mg/kg/injection, schedule: Q01DX009 (ip), vehicle: other); 101 % of control (dose: 150.0 mg/kg/injection, schedule: Q01DX009 (ip), vehicle: other).
`O=CN(CCO)CCO`: the T/C by setting is: (dose: 50.0 mg/kg/injection, schedule: Q01DX005 (ip), vehicle: saline) 107 % of control; (dose: 100.0 mg/kg/injection, schedule: Q01DX005 (ip), vehicle: saline) 94 % of control; (dose: 200.0 mg/kg/injection, schedule: Q01DX005 (ip), vehicle: saline) 114 % of control.
As for `CCN(CC)CCS(=O)Cc1ccccc1` (stereo not drawn), the T/C was 100 % of control under setting [4], 93 % of control under setting [5] and 102 % of control under setting [6].
Regarding `O=S(=O)(O)O.[Cu+2].[NH-]CCCCC[NH-].[NH-]CCCCC[NH-]`, the T/C by setting is: (dose: 1.56 mg/kg/injection, schedule: Q04DX002 (ip), vehicle: Klucel (hydroxypropylcellulose) (HPC)) 100 % of control; (dose: 3.12 mg/kg/injection, schedule: Q04DX002 (ip), vehicle: Klucel (hydroxypropylcellulose) (HPC)) 98 % of control; (dose: 6.25 mg/kg/injection, schedule: Q04DX002 (ip), vehicle: Klucel (hydroxypropylcellulose) (HPC)) 100 % of control; (dose: 12.5 mg/kg/injection, schedule: Q04DX002 (ip), vehicle: Klucel (hydroxypropylcellulose) (HPC)) 88 % of control and 98 % of control.
Turning to `Cc1cccc(-c2nc(N)nc(N)n2)c1`, the T/C is, setting by setting: under setting [7], 92 % of control; under setting [2], 95 % of control; under setting [1], 104 % of control.
Taken in the same sequence, the figures for `COc1cc(Br)cc(OC)c1N=Cc1ccccc1` were 102 % of control, 97 % of control and 100 % of control.
On the same counts, the results for `O=C(/C=C/c1ccc(OCc2ccccc2)cc1)c1ccc([N+](=O)[O-])cc1` are 99 % of control, 104 % of control and 102 % of control.
For the compound `O=C1c2cccc3c([N+](=O)[O-])ccc(c23)C(=O)N1NCCO`, the T/C runs as follows: (dose: 12.5 mg/kg/injection, schedule: Q01DX005 (ip), vehicle: saline with Tween-80) 108 % of control; (dose: 25.0 mg/kg/injection, schedule: Q01DX005 (ip), vehicle: saline with Tween-80) 116 % of control; (dose: 50.0 mg/kg/injection, schedule: Q01DX005 (ip), vehicle: saline with Tween-80) 111 % of control and 116 % of control; (dose: 100.0 mg/kg/injection, schedule: Q01DX005 (ip), vehicle: saline with Tween-80) 114 % of control.
